# Measurements as given in US7511074B2, “Tetrafluorobenzyl derivatives and pharmaceutical composition for preventing and treating acute and chronic neurodegenerative diseases in central nervous system containing the same” (AmKor Pharma, Inc., priority 2002, dated 2009).
# “Also recorded” adds a separate entry of the source. Read-outs that look alike come from different tables or passages of the source.
# How the values were obtained:
# NMDA receptor = test: Whole cell recording of NMDA-induced inward currents in cultured cortical neurons; type: cell-based, mouse
# Protocol: Typical NMDA-induced inward currents (NMDA currents) were evoked by applying 300 μM NMDA to cortical neurons which were held at […]. Successive application of various concentrations of 2-Hydroxy-TTBA reduced the response elicited by 300 μM NMDA in a concentration-dependent manner (n=8).
# Cortical neurons were treated with 100 μM 2-Hydroxy-TTBA, washed thoroughly, and then applied with 300 μM NMDA.
# Whole cell recordings were performed on cortical cell cultures at room temperature as described [Seo et al., J. Pharmacol. Exp. Ther., 299:377-384 (2001)]. Typical NMDA-induced inward currents (NMDA currents) were evoked immediately after applying 300 μM NMDA to cultured cortical neurons which were held at −70 mV.
# [1] = test system: ALS mice (G93A human SOD1 mutation); test: Neuronal death in spinal cord of ALS transgenic mice (SOD1-G93A); type: in vivo, mouse
# Protocol: Bright field photomicrographs of spinal cord sections stained with eosin from amyotrophic lateral sclerosis (ALS) mice over expressing the mutant SOD1-G93A that received vehicle (A) or 2-Hydroxy-TTBA (B, 10 mg/kg/day through drinking water) for 8 weeks from the age of 2 months.
# Degenerating neurons from FIG. 7a. were analyzed by counting viable neurons after staining with eosin in the dorsal and ventral horn of spinal cord from ALS mice treated with a vehicle (Control) or 2-Hydroxy-TTBA, mean ±S.E.M (n=5 animals for each condition). *, Significant difference from the vehicle control, p<0.05 using the independent t-test.
# Transgenic mice with the G93A human SOD1 mutation (B6SJL-TgN(SOD1-G93A)1Gur), animal models of ALS (ALS mice), were obtained from Jackson Laboratories (ME, USA). 2-hydroxy-TTBA was administered to 2 month-old wild type and ALS transgenic mice through drinking water bottle (10 mg/kg per day) for 8 weeks. Animals were then euthanized and spinal cords processed for histological examination by staining with hematoxylin and eosin. Spinal motor neurons from ALS mice without being treated with 2-hydroxy-TTBA (control) underwent degeneration as evident by eosinophilic staining, which was reduced in ALS mice treated with 2-hydroxy-TTBA (FIG. 7a).
# The number of degenerating neurons was analyzed by counting eosinophilic neurons in ventral horn (VH) and dorsal horn (DH).
# [2] = test system: Mouse cortical cell cultures; test: Zinc neurotoxicity in mixed cortical cell cultures (LDH assay); type: cell-based; settings: 100 μM ZnCl2 for 30 min, concurrent treatment; LDH 24 hr later
# Protocol: Mouse cortical cell cultures (DIV 12-14) were exposed to […] for 30 min, alone or with inclusion of 3-300 μM 2-Hydroxy-TTBA. Neuronal death was analyzed 24 hr later by measuring levels of LDH released into the bathing medium, mean ±SEM (n=9-12 culture wells per condition), scaled to mean LDH efflux value 24 hr after sham wash (=0) and continuous exposure to 500 μM NMDA (=100).
# For mixed neuron-glia culture, mouse cerebral cortices were removed from brains of the 14-16 day-old-fetal mice (E14-16), gently triturated and plated on 24 well plates (2×10^5 cells/plate) precoated with 100 μg/ml poly-D-lysine and 4 μg/ml laminine. Cultures were maintained at 37° C. in a humidified 5% CO2 atmosphere. […]
# After 7-8 days in vitro (DIV 7-8), 10 μM cytosine arabinofuranoside (Ara-C) was included to halt overgrowth of glia. […] Overall neuronal cell injury was assessed by measuring amount of lactate dehydrogenase (LDH) released into the bathing medium 24 hr after neurotoxic insults as previously described [Koh and Choi, J Neurosci Methods 20:83-90, 1987].
# To induce zinc (Zn^2+) neurotoxicity, mixed cortical cell cultures were exposed to 100 μM ZnCl2 for 30 min in a HEPES-buffered control salt solution (HCSS): (in mM) 120 NaCl, 5 KCl, 1.6 MgCl2, 2.3 CaCl2, 15 glucose, 20 HEPES and 10 NaOH, alone or with 3-300 uM 2-Hydroxy-TTBA. […] Neuronal cell death was analyzed 24 hr later by LDH assay. […]
smiles,measurement,setting,value
"O=C(O)c1cc(NCc2c(F)c(F)c(C(F)(F)F)c(F)c2F)ccc1O [2-Hydroxy-TTBA, 2-hydroxy-5-(2,3,5,6-tetrafluoro-4-trifluoromethylbenzylamino)benzoic acid]",effect on holding currents,NMDA receptor; 100 μM compound alone,had no effect on the holding currents
same,effect of pretreatment on response to subsequent 300 μM NMDA,"NMDA receptor; 100 μM compound applied alone, then 300 μM NMDA, n=6",did not influence NMDA-induced inward currents; also recorded: had little effect
same,Hill coefficient of dose response relation to NMDA currents,"NMDA receptor; 300 μM NMDA, neurons held at −60 mV, n=8",0.91
same,IC50,"NMDA receptor; 300 μM NMDA, neurons held at −60 mV, n=8, read-out: IC50 for NMDA currents (FIG. 2a legend)",~35 µM
same,IC50,"NMDA receptor; 300 μM NMDA, neurons held at −70 mV, bath application, n=7-15 neurons/condition, read-out: IC50 for depression of NMDA-evoked currents",30.6 ± 2.96 µM
same,degeneration of spinal motor neurons (eosinophilic staining),[1]; 10 mg/kg per day in drinking water for 8 weeks from 2 months of age,reduced
same,degeneration of dorsal and ventral horn neurons (count of eosinophilic neurons),"[1]; 10 mg/kg per day in drinking water for 8 weeks, n=5 animals",significantly prevented degeneration
same,doses at which zinc-induced neuronal death was prevented,[2],10 to 300 µM
